Non-standard residues stand in square brackets, D forms with d. No end group written: not given here. pY = N[C@@H](Cc1ccc(OP(=O)(O)O)cc1)C(=O)O
What was measured:
[1] = test system: Ink4a/Arf-/- astrocytes; assay: Drug sensitivity assay, cell viability by WST-1; assay type: cell-based, mouse; conditions: 72 hours
Source text: Mouse Astrocytes. Ink4a/Arf^−/−1 and Pten^loxP/loxP 2 mice were obtained from the NCI mouse depository and intercrossed to generate described genotypes. Primary astrocytes were isolated from the neocortex of 4 day old pups, using standard astrocyte isolation culture conditions (Bachoo et al 2002). Conditional deletion of Pten^loxP/loxP was accomplished by infecting astrocyte cultures with adenovirus expressing Cre recombinase under the CMV promoter (Gene TransferVector Core, University of Iowa, Iowa City, Iowa). Effective Pten deletion was verified by western blot. EGFRvIII was expressed in these cells by retroviral infection as described previously (Bachoo et al 2002). (Reference: Bachoo, R. M. et al. Epidermal growth factor receptor and Ink4a/Arf: convergent mechanisms governing terminal differentiation and transformation along the neural stem cell to astrocyte axis. Cancer Cell 1, 269-77 (2002)).
Drug sensitivity assays. Cells were plated at 1000 cells/well in 96 well plates and allowed to adhere for four hours prior to addition of Erlotinib and/or Dasatinib or solvent (DMSO) control. Cells were maintained in 5% serum during drug treatments and cell viability was measured using WST-1 assay (Clontech) following 72 hours exposure to drug.
Statistical analysis. For quantitation and analysis of immunohistochemistry data, see above. For analysis of drug sensitivity data, 2-way ANOVA was performed using the KaleidaGraph program (Synergy Software).

[2] = target: Lyn (Homo sapiens, UniProt P07948); conditions: cited from earlier work
[3] = in vivo; cited from earlier work
[4] = test system: Ph+ leukemia cells which express wt and mutated BCR-ABL; conditions: mouse, in vivo; cited from earlier work
[5] = test system: anti-pY240 PTEN antibody; assay: Peptide competition of anti-pY240 immunostaining; assay type: binding; conditions: tissue sections from human GBM with wild type PTEN
Source text: Immunohistochemistry: Tissue sections were cut from blocks of formalin-fixed paraffin tumor tissue from glioblastoma patients treated at UCLA with the EGFR kinase inhibitors (erlotinib or gefitinib), including a subset of patients previously described^2. Tumor specimens were obtained according to a protocol approved by the institutional review board of UCLA. Pre-treatment tumor tissue was examined for 19 patients; post-treatment tissue was examined from 8 patients, including 7 patients for whom pre- and post-treatment tissue was available. […]

[6] = test system: GBM39 cells; assay: PTEN Y240 phosphorylation in GBM39 glioma cells, western blot; assay type: cell-based, human; conditions: pervanadate 100 μM for 15 minutes
Method: Mice were sacrificed by CO2 inhalation followed by cervical dislocation, according to institutional guidelines. Subcutaneous tumors were removed and tumor tissue was minced into 0.1-0.5 mm^3 chunks in a 60 mm dish with 5 ml of freshly prepared, filter-sterilized digestion solution (12,500 units of Collagenase Type 2, 12,500 units of Collagenase Type 4, 20 mL DMEM (Serum Free), 20 uL of 1 mg/mL DNAase I). Tissue was placed into a sterile 15 ml specimen cup with an additional 10 ml of digestion solution and shaken (150 rpm) at 37 C for 3 hours before filtration through a 70/40 um filter. After centrifugation at 1000 rpm for 3 minutes, the supernatant was discarded. The pellet was resuspended in 1 ml of ACK buffer (150 mM NH4Cl, 10 mM KHCO3, 0.1 mM Na2EDTA, adjusted to pH 7.2-7.4 with 1N HCl) and incubated at room temperature for 3 minutes to lyse red blood cells. Cells were pelleted by centrifugation at 1000 rpm for 3 minutes and resuspended in culture medium (DMEM containing 10% fetal bovine serum plus L-glutamine and penicillin/streptomycin). Cell viability was determined by trypan blue exclusion and cells were plated at a density of approx 10^6 cells per 100 mm culture dish. Cells were maintained under standard cell culture conditions (37 C, 5% CO2 in a humidified incubator) and all experiments were conducted in cells prior to p4. […]

Sequence of Lyn (P07948 whole entry, species assumed): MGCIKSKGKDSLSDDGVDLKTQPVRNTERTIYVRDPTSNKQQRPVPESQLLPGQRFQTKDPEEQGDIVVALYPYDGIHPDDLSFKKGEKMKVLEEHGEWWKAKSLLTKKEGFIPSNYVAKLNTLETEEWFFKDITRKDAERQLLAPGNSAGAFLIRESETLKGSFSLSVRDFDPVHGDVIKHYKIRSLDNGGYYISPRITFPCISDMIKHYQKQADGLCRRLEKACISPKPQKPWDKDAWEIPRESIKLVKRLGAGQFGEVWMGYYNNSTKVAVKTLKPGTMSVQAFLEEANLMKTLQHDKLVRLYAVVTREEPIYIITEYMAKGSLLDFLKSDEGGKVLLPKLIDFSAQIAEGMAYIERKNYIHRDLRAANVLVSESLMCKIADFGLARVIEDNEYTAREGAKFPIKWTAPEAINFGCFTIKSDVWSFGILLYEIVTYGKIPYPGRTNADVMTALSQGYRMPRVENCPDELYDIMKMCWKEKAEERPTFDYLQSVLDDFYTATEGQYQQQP

C#Cc1cccc(Nc2ncnc3cc(OCCOC)c(OCCOC)cc23)c1 [Erlotinib]
sensitivity to Erlotinib (cell viability) ([1]; EGFRvIII PTEN-null astrocytes reconstituted with PTEN Y240F mutant): significantly sensitized these cells to sub-micromolar doses
sensitivity to Erlotinib (cell viability) ([1]; EGFRvIII astrocytes reconstituted with WT PTEN): resistant to clinically achievable doses
sensitivity to Erlotinib (cell viability) ([1]; PTEN-null astrocytes expressing EGFRvIII): resistant to clinically achievable doses
sensitivity to Erlotinib (cell viability) ([1]; astrocytes expressing WT PTEN, with versus without EGFRvIII): sensitizes astrocytes expressing WT PTEN to Erlotinib

Cc1ccc(NC(=O)c2ccc(CN3CC[C@H](N(C)C)C3)c(C(F)(F)F)c2)cc1Nc1nccc(-c2cncnc2)n1 [INNO-406]
Lyn inhibition versus phosphorylation of Src, Blk or Yes [2]: inhibits Lyn without affecting the phosphorylation of Src-family kinases Src, Blk or Yes
concentrations in the CNS relative to those in plasma [3]: about 10%
growth of Ph+ leukemia cells in murine CNS [4]: does inhibit growth

FMY[243.03]FEFPQPLPVC[160.03]GDIK: Phosphorylated PTEN Y240 peptide that competes away antibody staining (FM[pY]FEFPQPLPVCGDIK; not fully specified (residue 13); printed as FMY[243.03]FEFPQPLPVC[160.03]GDIK; also: modified cysteine C13 (C[160.03]))
competition of antibody staining in immunostaining [5]: competes away antibody staining

pervanadate
induction of Y240 phosphorylation [6]: substantial increase in Y240 phosphorylation

Reference: US20120165340A1, “PTEN PHOSPHORYLATION-DRIVEN RESISTANCE TO CANCER TREATMENT AND ALTERED PATIENT PROGNOSIS” (Ludwing Institute for Cancer Research Ltd., priority 2009, published 2012)
